Experimental data as given in US7781407B2, “Calcium gluconolactate compositions and methods of making same” (priority 2002, dated 2010).

Assay: Apparent and compacted bulk density (mass/volume, meshes 30, 80, 100)
Format: physicochemical
Description: 2.—Apparent and compacted bulk density; for the test calcium gluconolactonate, from formula III, was classified in 3 different types of mesh 30, 80, and 100 to determine its apparent density. The same procedure was used to determine compacted bulk density. The compound was classified in the same 30, 80, and 100 meshes, determining its density, in both cases, in grams per milliliter, as shown in table II below:
The average density corresponds to a 30 mesh, for the most common form of the product. A table is attached with different tests performed to determine the average apparent and compacted bulk density, resulting, in the first case, in a[n apparent] density of 0.690 and a compacted bulk density of 0.883, as shown in table III below: […]

[1] = 30 mesh, average of tests 1 to 31

## CC(O)C(=O)[O-].O=C([O-])[C@H](O)[C@@H](O)[C@H](O)[C@H](O)CO.[Ca+2] [calcium gluconolactate]
30 mesh, Mass/Volume
  Apparent Density (30 mesh): 0.690 g/mL
  Compacted Bulk Density (30 mesh): 0.883 g/mL
[1]
  Apparent density, average: 0.690
  Compacted Bulk density, average: 0.883
80 mesh, Mass/Volume
  Apparent Density (80 mesh): 0.655 g/mL
  Compacted Bulk Density (80 mesh): 0.904 g/mL
100 mesh, Mass/Volume
  Apparent Density (100 mesh): 0.609 g/mL
  Compacted Bulk Density (100 mesh): 0.874 g/mL
